From patent US5470862A, “Substituted pyrazolyl compounds and methods employing such compounds” (Ohmeda Pharmaceutical Products Division Inc., priority 1995, dated 1995)

test system: mice; assay: Loss of righting after intravenous administration (mouse); assay type: in vivo; conditions: 20 min, intravenous (lateral tail vein), 20 minute observation, acid addition salts, values corrected for the salts
Procedure: (§1) The acid addition salts of the compounds were dissolved in sterile water for injection, U.S.P, to form a solution, the concentration of which varied from 0.001 mg/ml to 5 mg/ml. Mice or rats were used for the tests. The test solution was administered to the test animal intravenously through the lateral tail vein. The animals were observed over a 20 minute period for loss of righting which is defined as the animal remaining in a supine position for 30 seconds. Five to ten mice and three to six rats were utilized for each dosage. The ED50 was calculated for each test compound either by linear regression or by a standard computer program utilizing the method of Litchfield and Wilcoxon, J. Pharmacol. Exp. Ther., vol. 96, p. 99 (1949). Since different animals were used, the ED50 values in Table 1 are those determined in the mouse except those values marked with an asterisk which were determined in the rat.

Compared with `C=C(C)c1cc(C(=O)OCC)nn1C(C)c1ccccn1` (stereo not drawn), `CCOC(=O)c1cc(C(C)=O)n(C(C)c2ccccn2)n1` (stereo not drawn) [CH3 / CO2 Et / CH3 CO / N / CH] is 2.2-fold higher in ED50: 8.9 mg/kg for the first, 19.7 mg/kg for the second.

Going from `CCOC(=O)c1cc(-c2nccs2)nn1C(C)c1ccccn1` (stereo not drawn) to `CCOC(=O)c1cc(-c2cocn2)nn1C(C)c1ccccn1` (stereo not drawn), the ED50 rises from 3.2 mg/kg to 7.7 mg/kg (2.4-fold).

`CCOC(=O)c1cc(-c2cccs2)n(C(C)c2ccccn2)n1` (stereo not drawn) and `CCOC(=O)c1cc(-c2ccsc2)n(C(C)c2ccccn2)n1` (stereo not drawn) are the same in ED50: 17.6 mg/kg for the first, 17.6 mg/kg for the second.

First: CCOC(=O)c1cc(-c2ccco2)nn1C(C)c1ccccn1 (stereo not drawn)
Second: CCOC(=O)c1cc(-c2cnco2)nn1C(C)c1ccccn1 (stereo not drawn)
The ED50 of the first is 2.2-fold lower: 1.3 mg/kg for the first, 2.8 mg/kg for the second.

Compared with `CCOC(=O)c1cc(-c2ccco2)nn1Cc1ccccn1`, `CCOC(=O)c1cc(-c2ccco2)n(Cc2ccccn2)n1` is 2-fold higher in ED50: 8.9 mg/kg for the first, 17.6 mg/kg for the second.

Going from `CCOC(=O)c1cc(-c2cccs2)n(Cc2ccccn2)n1` to `CCOC(=O)c1cc(-c2cccs2)nn1Cc1ccccn1`, the ED50 rises from 14.3 mg/kg to 28.3 mg/kg (2-fold).

First: CCOC(=O)c1cc(-c2nnco2)nn1C(C)c1ccccn1 (stereo not drawn)
Second: CCOC(=O)c1cc(-c2ocnc2C)nn1C(C)c1ccccn1 (stereo not drawn)
The ED50 of the first is 1.9-fold higher: 9 mg/kg for the first, 4.7 mg/kg for the second.

Going from `CCOC(=O)c1cc(-c2ccccn2)nn1C(C)c1ccccn1` (stereo not drawn) to `CCOC(=O)c1cc(-c2ccccn2)n(C(C)c2ccccn2)n1` (stereo not drawn), the ED50 rises from 3.5 mg/kg to 17.5 mg/kg (5-fold).

Compared with `CCOC(=O)c1cc(-c2ccncc2)nn1C(C)c1ccccn1` (stereo not drawn), `CCOC(=O)c1cc(-c2cccnc2)nn1C(C)c1ccccn1` (stereo not drawn) is 5.2-fold lower in ED50: 12 mg/kg for the first, 2.3 mg/kg for the second.

Going from `CCOC(=O)c1nc(-c2cc(C(=O)OCC)n(C(C)c3ccccn3)n2)cs1` (stereo not drawn) to `CCOC(=O)c1cc(-c2csc(C(=O)OCC)n2)n(C(C)c2ccccn2)n1` (stereo not drawn), the ED50 rises from 13.6 mg/kg to 31.6 mg/kg (2.3-fold).

Compared with `CCOC(=O)c1cc(-c2csc(-c3ccncc3)n2)nn1C(C)c1ccccn1` (stereo not drawn), `CCOC(=O)c1cc(-c2csc(-c3ccncc3)n2)n(C(C)c2ccccn2)n1` (stereo not drawn) is 9-fold higher in ED50: 5.7 mg/kg for the first, 51.4 mg/kg for the second.

Going from `CCOC(=O)c1cc(-c2cn3ccccc3n2)nn1C(C)c1ccccn1` (stereo not drawn) to `CCOC(=O)c1cc(-c2cccn2C)nn1C(C)c1ccccn1` (stereo not drawn), the ED50 falls from 14.3 mg/kg to 0.95 mg/kg (15-fold).

Going from `CCOC(=O)c1cc(-c2cocn2)n(C(C)c2ccccn2)n1` (stereo not drawn) to `CCOC(=O)c1cc(-c2cc(C)on2)n(C(C)c2ccccn2)n1` (stereo not drawn), the ED50 rises from 13.4 mg/kg to 23.7 mg/kg (1.8-fold).

`CCOC(=O)c1cc(-c2cc(C)on2)nn1C(C)c1ccccn1` (stereo not drawn) and `CCOC(=O)c1cc(C)nn1C(C)c1ccccn1` (stereo not drawn) [CH3 / CH3 / CO2 Et / N / CH] are within 1.5-fold of each other in ED50: 9.9 mg/kg for the first, 9 mg/kg for the second.

`CCOC(=O)c1cc(-c2cccn2C)n(C(C)c2ccccn2)n1` (stereo not drawn) and `CCOC(=O)c1cc(C)n(C(C)c2ccccn2)n1` (stereo not drawn) [CH3 / CO2 Et / CH3 / N / CH] are within 1.5-fold of each other in ED50: 6.2 mg/kg for the first, 6.9 mg/kg for the second.

First: CCOC(=O)c1cc(CC)nn1C(C)c1ccccn1 (stereo not drawn) [CH3 / CH2 CH3 / CO2 Et / N / CH]
Second: CCOC(=O)c1cc(C(C)=O)nn1C(C)c1ccccn1 (stereo not drawn) [CH3 / CH3 CO / CO2 Et / N / CH]
The ED50 of the first is 2.4-fold higher: 9.4 mg/kg for the first, 4 mg/kg for the second.

Compared with `CC(=O)OCc1cc(C)n(C(C)c2ccccn2)n1` (stereo not drawn) [CH3 / CH2 OCOCH3 / CH3 / N / CH], `CCOC(=O)c1cc(COC(C)=O)n(C(C)c2ccccn2)n1` (stereo not drawn) [CH3 / CO2 Et / CH2 OCOCH3 / N / CH] is 2.2-fold lower in ED50: 61.1 mg/kg for the first, 28.3 mg/kg for the second.

`CCOC(=O)c1cc(C)nn1C(C)c1cccnc1` (stereo not drawn) [CH3 / CH3 / CO2 Et / CH / N] and `CCOC(=O)c1cc(C)n(C(C)c2cccnc2)n1` (stereo not drawn) [CH3 / CO2 Et / CH3 / CH / N] are within 1.5-fold of each other in ED50: 21.5 mg/kg for the first, 26.3 mg/kg for the second.

First: CCOC(=O)c1cc(C=O)nn1C(C)c1ccccn1 (stereo not drawn) [CH3 / CHO / CO2 Et / N / CH, 3-formyl-1-(1-(2-pyridinyl)ethyl)pyrazole-5-carboxylic acid ethyl ester]
Second: CCOC(=O)c1cc(C(=O)OCC)n(C(C)c2ccccn2)n1 (stereo not drawn) [CH3 / CO2 Et / CO2 Et / N / CH, 1-[1-(2-pyridyl)ethyl]pyrazole-3,5-dicarboxylic acid diethyl ester]
The ED50 of the first is 7.1-fold higher: 9.9 mg/kg for the first, 1.4 mg/kg for the second.

First: CCOC(=O)c1cc(CC)n(C(C)c2ccccn2)n1 (stereo not drawn) [CH3 / CO2 Et / CH2 CH3 / N / CH]
Second: CCOC(=O)c1cc(COC)n(C(C)c2ccccn2)n1 (stereo not drawn) [CH3 / CO2 Et / CH2 OCH3 / N / CH]
The ED50 of the first is 2-fold lower: 9.4 mg/kg for the first, 19.1 mg/kg for the second.

`CCOC(=O)c1cc(C(=O)OCC)n(C(C)c2cccnc2)n1` (stereo not drawn) [CH3 / CO2 Et / CO2 Et / CH / N] and `CCOC(=O)c1cc(C(=O)OCC)n(Cc2cccnc2)n1` [H / CO2 Et / CO2 Et / CH / N] are within 1.5-fold of each other in ED50: 8.6 mg/kg for the first, 10.4 mg/kg for the second.

`CCOC(=O)c1ccn(C(C)c2ccccn2)n1` (stereo not drawn) [CH3 / CO2 Et / H / N / CH] and `CCOC(=O)c1cc(O)n(C(C)c2ccccn2)n1` (stereo not drawn) [CH3 / CO2 Et / OH / N / CH] are within 1.5-fold of each other in ED50: 34.2 mg/kg for the first, 31 mg/kg for the second.

Going from `CCOC(=O)c1ccnn1C(C)c1ccccn1` (stereo not drawn) [CH3 / H / CO2 Et / N / CH] to `CCOC(=O)c1cc(C)nn1Cc1ccccn1` [H / CH3 / CO2 Et / N / CH], the ED50 falls from 31 mg/kg to 17.4 mg/kg (1.8-fold).

Going from `CCOC(=O)c1cc(C)nn1Cc1cccnc1` [H / CH3 / CO2 Et / CH / N] to `CCOC(=O)c1cc(C(=O)OCC)n(Cc2ccccn2)n1` [H / CO2 Et / CO2 Et / N / CH], the ED50 falls from 25.1 mg/kg to 6.9 mg/kg (3.6-fold).

`CCOC(=O)c1cc(C)n(Cc2ccccn2)n1` [H / CO2 Et / CH3 / N / CH] and `CCOC(=O)c1ccn(Cc2ccccn2)n1` [H / CO2 Et / H / N / CH] are within 1.5-fold of each other in ED50: 37.7 mg/kg for the first, 43.9 mg/kg for the second.

test system: rats; assay: Loss of righting after intravenous administration (rat); assay type: in vivo; conditions: 20 min; rat (asterisk), intravenous (lateral tail vein), 20 minute observation; acid addition salts, values corrected for the salts
Procedure: as §1

Compared with `CCOC(=O)c1cc(-c2nnco2)n(C(C)c2ccccn2)n1` (stereo not drawn), `CCOC(=O)c1cc(-c2ncco2)n(C(C)c2ccccn2)n1` (stereo not drawn) is 8.5-fold lower in ED50: 7.2 mg/kg for the first, 0.85 mg/kg for the second.

`CCOC(=O)c1cc(-c2csc(-c3cccnc3)n2)nn1C(C)c1ccccn1` (stereo not drawn) and `CCOC(=O)c1cc(-c2cnccn2)nn1C(C)c1ccccn1` (stereo not drawn) are within 1.5-fold of each other in ED50: 1.1 mg/kg for the first, 1.5 mg/kg for the second.

Going from `CCOC(=O)c1cc(-c2coc(C)n2)nn1C(C)c1ccccn1` (stereo not drawn) to `CCOC(=O)c1cc(-c2coc(C)n2)n(C(C)c2ccccn2)n1` (stereo not drawn), the ED50 rises from 1.2 mg/kg to 8.8 mg/kg (7.3-fold).

Compared with `CCOC(=O)c1cc(-c2ocnc2C)n(C(C)c2ccccn2)n1` (stereo not drawn), `CCOC(=O)c1cc(-c2ncc(C)o2)n(C(C)c2ccccn2)n1` (stereo not drawn) is 27-fold lower in ED50: 23.2 mg/kg for the first, 0.85 mg/kg for the second.

Compared with `CCOC(=O)c1cc(-c2cc(C)no2)nn1C(C)c1ccccn1` (stereo not drawn), `CCOC(=O)c1cc(-c2cc(C)no2)n(C(C)c2ccccn2)n1` (stereo not drawn) is 1.9-fold higher in ED50: 3.8 mg/kg for the first, 7.2 mg/kg for the second.

`CCOC(=O)c1cc(-c2ncc(C)o2)nn1C(C)c1ccccn1` (stereo not drawn) and `CCOC(=O)c1cc(-c2nc(C)no2)nn1C(C)c1ccccn1` (stereo not drawn) are within 1.5-fold of each other in ED50: 1.1 mg/kg for the first, 0.79 mg/kg for the second.

Going from `CCOC(=O)c1cc(-c2ccn(C)c2)n(C(C)c2ccccn2)n1` (stereo not drawn) to `CCOC(=O)c1cc(-c2cccc(N)c2)nn1C(C)c1ccccn1` (stereo not drawn), the ED50 falls from 4.2 mg/kg to 0.53 mg/kg (7.9-fold).

Going from `CCOC(=O)c1cc(-c2cccnc2)nn1Cc1ccccn1` to `CCOC(=O)c1cc(-c2cccnc2)n(Cc2ccccn2)n1`, the ED50 rises from 7 mg/kg to 17.7 mg/kg (2.5-fold).

First: CCOC(=O)c1cc(-c2cccc(C)n2)nn1C(C)c1ccccn1 (stereo not drawn)
Second: CCOC(=O)c1cc(-c2ccccc2N)nn1C(C)c1ccccn1 (stereo not drawn)
The ED50 of the first is 2-fold higher: 1.6 mg/kg for the first, 0.81 mg/kg for the second.

Going from `CCOC(=O)c1cc(-c2ccccn2)nn1Cc1ccccn1` to `CCOC(=O)c1cc(-c2ccccn2)nn1Cc1cccnc1`, the ED50 rises from 5.1 mg/kg to 30.5 mg/kg (6-fold).

`CCOC(=O)c1cc(-c2ccc(N)cc2)nn1C(C)c1ccccn1` (stereo not drawn) and `CCOC(=O)c1cc(-c2ccccc2)nn1C(C)c1ccccn1` (stereo not drawn) are within 1.5-fold of each other in ED50: 2.7 mg/kg for the first, 2.8 mg/kg for the second.

`CCOC(=O)c1cc(-c2cccc(N(C)C)c2)nn1C(C)c1ccccn1` (stereo not drawn) and `CCCNC(=O)c1cc(C(=O)OCC)n(C(C)c2ccccn2)n1` (stereo not drawn) [CH3 / CONHC3 H7 / CO2 Et / N / CH] are within 1.5-fold of each other in ED50: 1.5 mg/kg for the first, 1.8 mg/kg for the second.

Work on `CCOC(=O)C(=O)c1cc(C(=O)OCC)n(C(C)c2ccccn2)n1` (stereo not drawn) [CH3 / COCO2 Et / CO2 Et / N / CH] yielded an ED50 of 2.86 mg/kg.
